{"source": "patent US5776957A", "about": "“Nornicotine enantiomers for use as a treatment for dopamine related conditions and disease states” (The University of Kentucky Research Foundation, priority 1996, dated 1998)", "key": {"[1]": {"test_system": "mouse striatal synaptosomes", "settings": "Grady et al., 1992, cited from earlier work"}, "[2]": {"experiment": "Amphetamine drug discrimination (substitution tests)", "assay_type": "in vivo, rat", "protocol": "Rats were trained in on two-lever food-reinforced operant tasks to discriminate amphetamine (1 mg/kg) from saline. After discrimination training stabilized, test doses of amphetamine (0.0625-2.0 mg/kg), nicotine (0.1-1.0 mg/kg) or nornicotine (1-10 mg/kg) were assessed for their ability to substitute for the amphetamine training dose during brief test sessions in which food reinforcement was withheld.\nNine male Sprague-Hawley rats were obtained from Harlan Industries (Indianapolis, Ind.) and were caged individually with water continuously available. Food access was restricted in order to maintain body weights at approximately 80% of free-feeding weight. Prior to the start of the experiment, all rats received a single injection of amphetamine (1 mg.kg, IP) as part of an unrelated experiment. Apparatus Six operant chambers (ENV-001, Med Associates, St. Albans, Vt.) enclosed in a sound attenuating environment were used. Located in the bottom center of the front panel in each chamber was a 5×4.-cm opening to a recessed food tray. Two metal response levers were located on the front panel, one on each side of the food tray. The center of each lever was mounted 7.3 cm from the grid floor. A 28-Vcue light, 3 cm in diameter, was centered 6 cm above each lever. A personal computer, interfaced to the chamber with Med Associates equipment, controlled the experimental sessions and collected data.\nThe general procedures utilized to establish amphetamine discrimination were similar to those outlined previously (13). Briefly, rats were first given access to food pellets (45 mg sucrose pellet, Noyes Co., Lancaster, N.H.) dispensed noncontingently into the food tray with both levers present. One lever was then removed and the rat was shaped to depress the other lever for food reinforcement. Following this, rats received 15-min daily sessions in which the lever (left or right) available for food reinforcement was alternated daily. […] The start of each session was signaled by the onset of both cue lights mounted above the levers, and the termination of each session was signaled by the offset of these lights. This training phase was continued until the rat earned 20 reinforces on an FR25 schedule for two days.\nAmphetamine discrimination training was conducted Monday through Friday. For this training, both levers were mounted in the chamber. Amphetamine (A; 1 mg/kg) or saline (S), was injected IP 15 min prior to the start of the session, with the order of injections being either AASS or SSAA. The left lever was designated as the amphetamine-correct lever for 4 rats, while the right lever was amphetamine -correct for 5 rats. On Monday, Wednesday and Friday, injection-appropriate responding was food-reinforcedon an FR25 schedule for the entire 15-min session. However, 2-min extinction periods were instituted at the beginning of sessions on Tuesday and Thursday (one amphetamine and one saline test per week) to assess the control of amphetamine (or saline) over responding. […] During the remaining 13 min of these sessions, contingent reinforcement for injection-appropriate responding was reinstated. This phase of training was continued until the rat completed the first FR25 on the correct lever for 10 consecutive sessions and also completed 80% or more responses on the injection-appropriate lever during 4 consecutive extinction periods.\nThe substitution phase was identical to the previously described amphetamine discrimination phase, except for the Friday session, which was decreased to a 4-min extinction session with no food available."}, "[3]": {"settings": "cited from earlier work"}, "[4]": {"test_system": "[3H]DA-preloaded rat striatal slices (nicotinic receptors)", "experiment": "[3H]overflow (DA release) from [3H]DA-preloaded rat striatal slices", "assay_type": "cell-based", "protocol": "In vitro pharmacological effects of NIC are generally investigated using either striatal slices or synaptosome preparations preloaded with [^3 H] DA. NIC-evoked [^3 H]overflow is obtained routinely in the presence of nomifensine (10 μM; a DA uptake inhibitor) and for pargyline (10 μM, a monoamine oxidase inhibitor) in the superfusion buffer, such that [^3 H]overflow represents primarily [^3 H]DA rather than [H]DA-metabolites (Zumstein et al., 1981, Hoffmann and Cubeddu, 1982, Dwoskin and Zahniser, 1986, Rapier et al., 1988), and for this reason, [^3 H]overflow also will be referred to as [^3 H] DA release in the proposal.\nThe present studies use striatal slices superfused with various concentrations of NIC or norNIC for prolonged periods.\nFIG. 4. […] Insets illustrate the response to the low concentration range. […] NIC exposure indicated by the bar under time course. Note: 1-min sample collection period. […] N=4 rats.\nRat striatal slices were depolarized with 10 μM NIC, 20 mM K+or 1 Hz, 60 pulses or 3 Hz, 180 pulses electrical field stimulation. […] N=4.\nMEC or DHβE was included in the superfusion buffer for 60 min prior to the addition of NIC, and superfusion continued for 60 min in the presence of NIC+antagonist."}, "[5]": {"experiment": "NIC and metabolites in rat brain after s.c. injection of radiolabelled NIC", "assay_type": "in vivo", "from_the_text": "NIC metabolism studies involving HPLRC analysis invariably utilize NIC with a radiolabel (i.e., [^3 H], [^14 C] or [^11 C]) incorporated in the methyl group. However N-demethylated NIC metabolites (norNIC and norCOT) cannot be detected after injection of such radionuclides, since the label is lost in the formation of these metabolites. NIC and four NIC metabolites have recently been detected in rat brain 4 hr after s.c. injection of [2'-^14 C]NIC (FIG. 3, Table I). Three of these metabolites have been identified as COT, norNIC and norCOT. A fourth minor metabolite (Peak B) has not been completely identified but appears to be an N-demethylated metabolite, since it is not detected in the [^3 H-N-methyl]NIC studies.\nCOT, and therefore, is unlikely to originate from COT N-demethylation. 3-HydroxyCOT and its glucuronide conjugate were not detected as metabolites of either NIC or COT in brain, even though these are major biotransformation products in the periphery (Crooks, 1993).\nIt appears that NIC metabolites which accumulate with a time course that correlates with the development of behavioral sensitization to NIC have a role in eliciting sensitization to NIC. The inventors have detected NIC, COT, norNIC and norCOT in brain 4 hr following acute s.c. injection of (±)[2'-^14 C]NIC. S(-) [^3 H] -N-methyl]NIC is unsuitable for studying brain metabolism of NIC, since nor-metabolites (i.e., demethylated metabolites) cannot be detected due to [^3 H]-loss during metabolism (Crooks et al., 1995b, AP 7). Thus, commercially available (±)[2'-^14 C]NIC was used to determine NIC metabolites present in brain. This form of radiolabelled NIC provides a metabolically stable [^14 C]-label which allows measurement of all potential NIC metabolites.\nA second \"metabolite\" (Peak A, FIG. 2) was also detected at each time point and most likely results from a combination of metabolic cleavage of the N-methyl group and dissociated-[^3 H], i e, Peak A represents an oxidized 1-carbon unit and indicates the extent of NIC N-demethylation. Note, in our subsequent studies with [2'-^14 C]NIC, Peak A was not observed, which is consistent with our interpretation of the results (Table 1)."}, "[6]": {"settings": "rat brain, 4 hrs after s.c. injection, Table 1, footnote e"}, "[7]": {"settings": "rat brain, 4 hrs after s.c. injection, Table 1, footnote f"}}, "note": "Entries after “also recorded” stand apart in the source; their conditions may differ. Read-outs that look alike come from different tables or passages of the source.", "data": [{"compound": "c1cncc(C2CCCN2)c1", "note": "(racemic) [(±) norNIC]", "values": [{"measurement": "evoked [3H]overflow / [3H]DA release", "setting": "[1]", "result": "concentration dependent increase"}, {"measurement": "evoked [3H]overflow / [3H]DA release", "setting": "[1]; listed as (+) nornicotine", "result": "concentration-dependent increase"}]}, {"compound": "CC(N)Cc1ccccc1", "note": "(stereo not drawn) [amphetamine, d-Amphetamine]", "values": [{"measurement": "substitution for amphetamine training dose", "setting": "[2]; 1 and 2 mg/kg", "result": "substituting fully; also recorded: substituted fully"}, {"measurement": "amphetamine-appropriate responding", "setting": "[2]; 1 and 2 mg/kg IP, 15 min", "result": "greater than 80%"}, {"measurement": "total number of lever presses", "setting": "[2]; 15 min", "result": "dose-related decrease in total number of lever presses"}, {"measurement": "cross-sensitization between nicotine and amphetamine", "setting": "[3]", "result": "has not been observed"}]}, {"compound": "CCN1CCC[C@H]1CNC(=O)c1c(O)c(Cl)cc(Cl)c1OC", "note": "[raclopride]", "values": [{"measurement": "effect on overflow evoked by 1 or 3 Hz stimulation", "setting": "[4]; 1 μM, electrical field stimulation", "result": "increases overflow"}]}, {"compound": "CN1CCC[14CH]1c1cccnc1", "note": "(racemic) [[^14 C-2']-NIC]", "values": [{"measurement": "Percent of Total Radiolabel: COT", "setting": "[5]; [6]", "result": "60.8 ± 0.63", "unit": "%"}, {"measurement": "Percent of Total Radiolabel: NIC", "setting": "[5]; [6]", "result": "24.2 ± 2.94", "unit": "%"}, {"measurement": "Percent of Total Radiolabel: Peak A", "setting": "[5]; [6]", "result": "0.0 ± 0.0", "unit": "%"}, {"measurement": "Percent of Total Radiolabel: Peak B", "setting": "[5]; [6]", "result": "0.0 ± 0.0", "unit": "%"}, {"measurement": "Percent of Total Radiolabel: norNIC", "setting": "[5]; [6]", "result": "15.1 ± 2.54", "unit": "%"}, {"measurement": "Percent of Total Radiolabel: COT", "setting": "[5]; [7]", "result": "62.9 ± 5.27", "unit": "%"}, {"measurement": "Percent of Total Radiolabel: NIC", "setting": "[5]; [7]", "result": "14.2 ± 3.30", "unit": "%"}, {"measurement": "Percent of Total Radiolabel: Peak A", "setting": "[5]; [7]", "result": "0.0 ± 0.0", "unit": "%"}, {"measurement": "Percent of Total Radiolabel: Peak B", "setting": "[5]; [7]", "result": "2.33 ± 0.12", "unit": "%"}, {"measurement": "Percent of Total Radiolabel: norCOT", "setting": "[5]; [7]", "result": "4.15 ± 0.48", "unit": "%"}, {"measurement": "Percent of Total Radiolabel: norNIC", "setting": "[5]; [7]", "result": "16.5 ± 2.04", "unit": "%"}]}, {"compound": "O=C1CCC(c2cccnc2)N1", "note": "(stereo not shown) [NorCOT, norcotinine]", "values": [{"measurement": "presence as metabolite in brain", "setting": "[5]; rat brain, after s.c. radiolabelled NIC", "result": "minor CNS metabolite of NIC"}]}, {"compound": "CO[C@H]1CC=C2CCN3CCC4=C(CC(=O)OC4)[C@]23C1", "note": "[DHβE, dihydro-β-erythroidine]", "values": [{"measurement": "inhibition of NIC-evoked [3H]overflow", "setting": "[4]; 10 μM NIC, concentration-dependent", "result": "robustly inhibited"}, {"measurement": "effect on [3H]DA release itself", "setting": "[4]; 100 μM", "result": "evoked the release of [^3 H]DA itself"}, {"measurement": "inhibition of norNIC-evoked [3H]overflow", "setting": "[4]; high concentrations (100 μM-3 mM) of norNIC", "result": "ineffective in inhibiting"}, {"measurement": "inhibition of norNIC-evoked [3H]overflow", "setting": "[4]; low concentrations (<100 μM) of norNIC", "result": "effectively inhibited"}, {"measurement": "mode of antagonism of norNIC response", "setting": "[4]; norNIC concentration-response curve", "result": "competitive"}]}, {"compound": "CN1C(=O)C(O)CC1c1cccnc1", "note": "(stereo not shown) [3-HydroxyCOT]", "values": [{"measurement": "presence as metabolite in brain", "setting": "[5]; rat, in vivo, sc", "result": "not detected"}]}]}
